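The compound was tested at five concentrations on cells cultured in 96-well plates, with a 48-hour exposure period. The concentration for 50% growth inhibition is given as GI50. TGI: concentration producing complete growth inhibition.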
Legend:
Experiment in all cases: NCI-60 cell line screen, 48 h
[1] = system: HL-60(TB) leukemia
[2] = system: NCI-H522 lung
[3] = system: UACC-257 melanoma
[4] = system: K-562 leukemia
[5] = system: NCI-H460 lung
[6] = system: SF-539 CNS
[7] = system: M14 melanoma
[8] = system: SK-MEL-2 melanoma
[9] = system: SK-MEL-5 melanoma
[10] = system: A498 renal

SMILES	TGI [1]	TGI [2]	TGI [3]	TGI [4]	TGI [5]	TGI [6]	TGI [7]	TGI [8]	TGI [9]	TGI [10]	GI50 [1]	GI50 [10]	GI50 [2]	GI50 [3]	GI50 [4]	GI50 [5]	GI50 [6]	GI50 [7]	GI50 [8]	GI50 [9]
CC1OC(OC2C(OC(=O)[C@@H]3CC(C)(C)C[C@H]4C5=CC[C@@H]6[C@@]7(C)C[C@H](O)[C@H](OC8OC(CO)C(O)C(O)C8O)[C@@](C)(CO)[C@@H]7[C@H](O)C[C@@]6(C)[C@]5(C)CC[C@@]34C)OCC(O)C2O)C(O)C(O)C1O (some centres not stated)	> 7.5 µM	> 7.5 µM	> 7.5 µM	> 7.5 µM	> 7.5 µM	> 7.5 µM	> 7.5 µM	> 7.5 µM	> 7.5 µM											
COC(=O)c1c(O)ccc2c1C1(Cc3ccccc3C1=O)C(O)O2 (configuration not stated)	40.4 µM	18.1 µM	> 100 µM	> 100 µM	> 100 µM	55.7 µM	52.2 µM	> 100 µM	> 100 µM	> 100 µM										
CC1OC(O[C@H]2/C=C/C=C/C=C/C=C/C=C/C=C/C=C/[C@H](C)[C@@H](O)[C@@H](C)[C@H](C)OC(=O)CC(O)CC(O)CCC(O)C(O)CC(O)C[C@]3(O)C[C@H](O)C(C(=O)O)C(C2)O3)C(O)[C@H](N)C1O (some centres not stated)	10.9 µM	6.02 µM	3.4 µM	> 100 µM	4.84 µM	11.6 µM	5.96 µM	12 µM	12.8 µM	25.9 µM	3.79 µM	12 µM	2.58 µM	1.75 µM	30.1 µM	2.14 µM	2.92 µM	2.57 µM	3.9 µM	3.51 µM
COC(=O)c1c(OC(C)=O)ccc2c1c1c(OC(C)=O)c3ccccc3c(OC(C)=O)c1n2Cc1ccccc1	26.6 µM	3.4 µM	> 50 µM	> 50 µM	> 50 µM	4.04 µM	17.2 µM	6.81 µM	9.47 µM	43.8 µM										
OC1(c2ccccc2)CSC2=Nc3ccccc3C3CCN1N23 (configuration not stated)	71.1 µM	40.5 µM	86.8 µM	> 100 µM	> 100 µM	30.8 µM	38.3 µM	32.1 µM	35.9 µM	44.7 µM										
Nc1nc(Cl)c(N)c(NCC2(CO)CC(CCCc3ccccc3)C2)n1 (configuration not stated)	32.2 µM	19.6 µM	> 100 µM	> 100 µM	> 100 µM	> 64.2 µM	> 53.4 µM	30.6 µM	15.4 µM	66.1 µM										
OC(c1ccc(-c2ccccc2)cc1)C(F)(F)c1nc2ccccc2o1 (configuration not stated)	> 74.1 µM	> 100 µM	> 100 µM	> 61.3 µM	> 100 µM	> 72.3 µM	> 100 µM	> 100 µM	> 100 µM	> 41.2 µM										
CCOC(=O)CSc1nnc(C(Sc2nc(-c3ccccc3)c(-c3ccccc3)[nH]2)C(C)C)n1-c1ccccc1 (configuration not stated)	> 31.6 µM	26.9 µM	19.3 µM	> 100 µM	> 31.6 µM	18.8 µM	20.1 µM	22.9 µM	> 10 µM	> 10 µM										
CCC(c1c[nH]c2ccc(Br)cc12)c1c[nH]c2ccc(Br)cc12	16.3 µM	18.1 µM	23.9 µM	6.57 µM	6.82 µM	28.6 µM	14.2 µM	23.1 µM	26.8 µM	13.3 µM										
c1ccc(CSCCc2ccncc2)cc1	89.6 µM	> 100 µM	> 100 µM	> 100 µM	> 100 µM	> 100 µM	> 100 µM	> 100 µM	> 100 µM	> 100 µM										
CC1=NN(C(=O)CSc2nc3ccc(I)cc3c(=O)n2Cc2ccccc2)C(=O)C1	> 100 µM	21.2 µM	85.4 µM	74.9 µM	> 100 µM	> 100 µM	> 100 µM	41 µM	55.2 µM	83.7 µM										
O=C1NC(=S)N(c2ccccc2)C1=O	> 100 µM	> 100 µM	> 100 µM	> 100 µM	> 100 µM	> 100 µM		> 100 µM	> 100 µM	> 100 µM										
CCN(CC)CCNCc1cc(Cl)cc2c1OCOC2	> 10 µM	> 10 µM		> 10 µM	> 10 µM	> 10 µM	> 10 µM	> 10 µM	> 10 µM	> 10 µM										
Brc1c(C#CCC2CCCCC2)ccc(C#CCC2CCCCC2)c1Br	> 100 µM	> 100 µM	> 100 µM	> 100 µM	> 100 µM	> 100 µM	> 100 µM	> 100 µM	> 100 µM	> 100 µM										
Nc1ccc(CCN2CCN(CCCc3ccccc3)CC2)cc1	> 100 µM	> 100 µM	> 100 µM	> 100 µM	> 100 µM	> 100 µM	> 100 µM	> 100 µM	> 100 µM	> 100 µM										
CC[C@@H](/C=C\CCC(=O)C[C@H](O)CCC=C(C)C)O[Si](C(C)C)(C(C)C)C(C)C	> 100 µM	> 100 µM	> 100 µM	> 100 µM	> 100 µM	> 100 µM	> 100 µM	> 100 µM	> 100 µM	> 100 µM										

Reference: PubChem BioAssay (NCI)
